Where no end group is shown, it is not given here. [ ]: non-standard residue; d: D form.
System: S. aureus
Assay: LIVE/DEAD assay of bacterial membrane integrity
Assay type: cell-based, Staphylococcus aureus
Details: SYTO 9 / propidium iodide stain
Source text: Assessing the antibacterial activity of GL13K-loaded MSNs against Staphylococcus aureus (USA300, MRSA strain). Overnight culture of S. aureus, USA300 prepared in tryptic soy broth (TSB, DF0370-17-3, Fisher Scientific) were used for assessing the antibacterial activity of AMP-loaded MSNs. USA300 is one of the primary causatives of implant associated infection and implant failure. The optical density of the overnight culture was adjusted to 0.05 and treated with different concentrations of AMP-loaded MSN and AMP alone and MSN (without AMP) and PBS (vehicle control) was used as positive and negative controls. The bacteria was cultured for 24 h under different conditions and metabolic activity tested using BacTiter-Glo™ microbial cell viability assay. The assay was performed using manufacturer's instruction and metabolic activity was measured by luminescence which was measured using microplate reader (Synergy HT, Biotek). […] FIGS. 7A-7C show metabolic activity of USA300 cultured in presence of AMP-loaded MSNs, MSN alone and AMP added directly to the bacterial suspension. Values on x-axis correspond to the loaded AMP concentration.
Overnight culture of S. aureus was treated the same was using method discussed for FIGS. 7A-7C. A LIVE/DEAD assay was performed to visualize cell colonization of surfaces and membrane integrity of all experimental groups. […]

## D-GL13K (G[dK][dI][dI][dK][dL][dK][dA][dS][dL][dK][dL][dL]) [AMP]
  membrane-compromised bacteria (antibacterial capability): significant membrane-compromised bacteria
